Measurements published in patent publication US10981879B2, “Thioether triazolopyridine and triazolopyrimidine inhibitors of myeloperoxidase” (BRISTOL-MYERS SQUIBB COMPANY, priority 2014, dated 2021).

Columns and labels:
Format in all cases: biochemical
[1] = molecular target: T1, myeloperoxidase (MPO) (Homo sapiens (Human), UniProt P05164); experiment: MPO chlorination assay (APF)
Outline: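 Human MPO (200 pM) with 120 mM NaCl preincubated with inhibitor 10 minutes at rt in 100 mM KPi pH 7.4. Reaction started with APF mixture containing 10 μM H2O2; fluorescein fluorescence (ex 485/em 535 nm) read kinetically 3 minutes. IC50 from slopes of linear kinetic portion, fitted with a four-parameter Hill equation.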

[2] = molecular target: eosinophil peroxidase (EPX) (Homo sapiens (Human), UniProt P11678); experiment: EPX bromination assay
Description: EPX bromination activity was measured in 100 mM KPi (pH 7.4) by monitoring the H2O2 catalyzed formation of 3-bromo tyrosine from tyrosine and potassium bromide. A 50 μl mixture of 0.6 μM EPX (Lee Biosolutions Cat #342-60) was added to 100 nL inhibitor in 100% DMSO in a 384 well REMP plate. Enzyme and compound were preincubated for ten minutes at rt.
After the ten minute preincubation of enzyme and inhibitor, 25 μL of a mixture containing 400 μM tyrosine and 1200 μM potassium bromide was added to the plate containing enzyme and inhibitor, followed by the addition of 25 μl of 20 μM H2O2. The reaction was allowed to proceed for 15 minutes, at which time it was quenched with 10 μL of 20% TCA. The final concentrations of all components were 0.3 μM EPX, 100 μM tyrosine, […], 5 μM H2O2, 0.1% DMSO, 2.0% TCA.
IC50 values were determined by determining the peak areas of 3-bromotyrosine present at the end of the 15 minute reaction and fitting the data to:
[formula] where A=minimal Y value (activity level of inhibited sample), B=maximal Y value (activity level of uninhibited sample), C=Log IC50, D=Hill Slope, x=concentration of inhibitor.
Reversed-phase analysis was performed on a Waters Acquity Ultra Performance LC system using an Acquity UPLC BEH C18 […], 2.1×50 mm analytical column. The column was maintained at 60° C. Samples were eluted using a gradient of 0%-100% B over 2.5 minutes, followed by equilibration with 100% A for 1 minute where A consisted of 0.1% TFA and B consisted of 90% MeOH/0.1% TFA at a flow rate of 0.6 mL/min. The retention time of 3-bromo tyrosine was 1.22 min.

[3] = molecular target: T1, myeloperoxidase (MPO); experiment: MPO peroxidation assay (Amplex Red); settings: Table 1
Description: MPO peroxidation activity was measured in 100 mM KPi (pH 7.4) by utilizing the non-fluorescent reagent Amplex Red (Invitrogen catalog #A12222) which can be oxidized to the highly fluorescent resorufin. Amplex Red is oxidized by the peroxidase action of MPO to resorufin. Reactions were carried out in 50 μL total volume by adding a 25 μL mixture of 200 pM myeloperoxidase and 40 nM H2O2 (Sigma #349887) to 100 nL inhibitor in 100% DMSO in a 384 well Perkin Elmer Optiplate. Enzyme and compound were preincubated for ten minutes at rt.
After the ten minute preincubation, 25 μL of an Amplex Red mixture containing 200 μM Amplex Red and 10 mM H2O2 was added to the plate. Kinetic determinations were carried out immediately on a Perkin Elmer Envision (15 minute kinetic read, Ex: 535 nm, Em: 590 nm).
IC50 values were calculated by determining the slope of the linear portion of the kinetic trace (180-540 secs), and using that calculated slope to determine % inhibition occurring at each concentration of inhibitor using the following equation:
[formula] where A=minimal Y value (activity level of inhibited sample), B=maximal Y value (activity level of uninhibited sample), C=Log IC50, D=Hill Slope, x=concentration of inhibitor. MPO Chlorination Assay

[4] = MPO chlorination assay, ranges given, read-out: MPO chlorination assay IC50
[5] = MPO chlorination assay (APF), Table 1, read-out: APF IC50

T1 sequence (P05164 49-745): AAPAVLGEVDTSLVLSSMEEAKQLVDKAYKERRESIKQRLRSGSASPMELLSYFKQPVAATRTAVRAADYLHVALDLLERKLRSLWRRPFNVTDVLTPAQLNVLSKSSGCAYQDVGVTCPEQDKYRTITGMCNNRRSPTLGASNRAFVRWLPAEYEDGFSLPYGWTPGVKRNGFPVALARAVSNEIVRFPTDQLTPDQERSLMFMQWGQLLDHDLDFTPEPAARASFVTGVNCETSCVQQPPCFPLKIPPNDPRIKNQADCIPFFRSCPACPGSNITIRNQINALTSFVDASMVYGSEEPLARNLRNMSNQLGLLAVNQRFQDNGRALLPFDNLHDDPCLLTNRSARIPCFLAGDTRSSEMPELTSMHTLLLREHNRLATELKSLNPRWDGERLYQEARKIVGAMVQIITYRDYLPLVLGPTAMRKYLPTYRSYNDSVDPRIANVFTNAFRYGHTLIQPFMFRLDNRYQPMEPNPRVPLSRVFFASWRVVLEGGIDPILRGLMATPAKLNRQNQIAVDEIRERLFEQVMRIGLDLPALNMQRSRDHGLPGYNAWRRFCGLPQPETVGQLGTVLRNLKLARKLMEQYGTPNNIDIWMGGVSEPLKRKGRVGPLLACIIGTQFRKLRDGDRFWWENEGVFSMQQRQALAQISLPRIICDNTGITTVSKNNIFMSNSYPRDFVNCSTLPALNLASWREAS
eosinophil peroxidase (EPX), sequence (P11678 251-715): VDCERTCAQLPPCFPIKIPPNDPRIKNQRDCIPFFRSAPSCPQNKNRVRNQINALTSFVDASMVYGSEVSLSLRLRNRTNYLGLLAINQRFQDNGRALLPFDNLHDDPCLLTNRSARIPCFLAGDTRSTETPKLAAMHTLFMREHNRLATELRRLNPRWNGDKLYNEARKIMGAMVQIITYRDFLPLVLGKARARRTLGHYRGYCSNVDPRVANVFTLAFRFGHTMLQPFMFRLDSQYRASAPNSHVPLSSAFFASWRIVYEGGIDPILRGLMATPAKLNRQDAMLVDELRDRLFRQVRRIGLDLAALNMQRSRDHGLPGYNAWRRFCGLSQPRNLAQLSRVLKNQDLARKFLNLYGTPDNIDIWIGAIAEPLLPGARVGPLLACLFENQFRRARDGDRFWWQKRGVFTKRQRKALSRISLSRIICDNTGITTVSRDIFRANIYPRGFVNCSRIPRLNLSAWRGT
eosinophil peroxidase (EPX), sequence (P11678 140-250): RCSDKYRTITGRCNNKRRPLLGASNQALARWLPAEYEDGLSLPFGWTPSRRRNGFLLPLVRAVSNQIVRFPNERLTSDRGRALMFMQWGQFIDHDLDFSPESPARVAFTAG

Structure (SMILES)	IC50 [1, 4] [nM]	IC50 [2] [nM]	IC50 [3] [nM]	IC50 [1, 5] [nM]
Cn1ncc2c(CSc3cc(N)nc4[nH]nnc34)cccc21 [Example 51, 7-(((1-methyl-1H-indazol-4-yl)methyl)thio)-3H-[1,2,3] triazolo[4,5-b]pyridin-5-amine]	60 to 200	6	–	–
CC(Sc1cc(N)nc2[nH]nnc12)c1ccccc1 (centres unmarked) [Example 2, 7-((1-phenylethyl)thio)-3H-[1,2,3]triazolo[4,5-b]pyridin-5-amine]	–	1	10	10
Nc1cc(SCc2cn(-c3ccc(N4CCCC4)nc3)nc2C(F)(F)F)c2nn[nH]c2n1 [Example 139]	–	–	170	10
Nc1cc(SCc2cc(C(F)(F)F)ccc2C(F)(F)F)c2nn[nH]c2n1 [Example 39, 7-((2,5-bis(trifluoromethyl)benzyl)thio)-3H-[1,2,3] triazolo[4,5-b]pyridin-5-amine]	–	–	10	20
Nc1cc(SC(CO)c2ccccc2)c2nn[nH]c2n1 (centres unmarked) [Example 126, 2-((5-Amino-3H-[1,2,3]triazolo[4,5-b]pyridin-7-yl)thio)-2-phenylethanol]	–	–	20	80
Nc1cc(SCc2ccccc2CN2CCC(Oc3ccccc3)C2)c2nn[nH]c2n1 (centres unmarked) [Example 98, 7-((2-((3-phenoxypyrrolidin-1-yl)methyl)benzyl)thio)-3H-[1,2,3]triazolo[4,5-b] pyridin-5-amine]	–	–	530	640
Nc1cc(SCc2cc(F)ccc2OC(F)(F)F)c2nn[nH]c2n1 [Example 66, 7-((5-fluoro-2-(trifluoromethoxy)benzyl)thio)-3H-[1,2,3]triazolo[4,5-b]pyridin-5-amine]	–	–	10	20
CS(=O)(=O)c1ccc(CSc2cc(N)nc3[nH]nnc23)c(Cl)c1 [Example 104, 7-((2-chloro-4-(methylsulfonyl)benzyl)thio)-3H-[1,2,3]triazolo[4,5-b]pyridin-5-amine]	–	–	10	90
Nc1cc(SCc2c(Cl)cccc2Cl)c2nn[nH]c2n1 [Example 11, 7-((2,6-Dichlorobenzyl)thio)-3H-[1,2,3]triazolo[4,5-b]pyridin-5-amine]	≤ 60	2	–	–
Nc1cc(SCc2cn(-c3cccnn3)nc2C(F)F)c2nn[nH]c2n1 [Example 144]	–	–	40	80
Nc1cc(SCc2cn(-c3cnccn3)nc2C(F)F)c2nn[nH]c2n1 [Example 145]	–	–	30	80
Nc1cc(SCc2ccc(OC(F)(F)F)cc2)c2nn[nH]c2n1 [Example 7, 7-((4-(trifluoromethoxy)benzyl)thio)-3H-[1,2,3] triazolo[4,5-b]pyridin-5-amine]	≤ 60	20	–	–
N#Cc1ccc(C2CC2)c(CSc2cc(N)nc3[nH]nnc23)c1 [Example 88, 3-(((5-amino-3H-[1,2,3]triazolo[4,5-b]pyridin-7-yl)thio)methyl)-4-cyclopropylbenzonitrile]	–	–	30	9
Nc1cc(SCc2ccccc2F)c2nn[nH]c2n1 [Example 3, 7-((2-fluorobenzyl)thio)-3H-[1,2,3]triazolo [4,5-b]pyridin-5-amine]	–	–	7	10
Nc1cc(SCc2cnn(C3CCCCC3)c2C(F)(F)F)c2nn[nH]c2n1 [Example 116, 7-(((1-cyclohexyl-5-(trifluoromethyl)-1H-pyrazol-4-yl)methyl)thio)-3H-[1,2,3]triazolo[4,5-b] pyridin-5-amine]	–	–	100	530
CCC(Sc1cc(N)nc2[nH]nnc12)c1ccccc1 (centres unmarked) [Example 45, 7-((1-phenylpropyl)thio)-3H-[1,2,3]triazolo[4,5-b] pyridin-5-amine]	–	–	20	80
CCn1ncc(CSc2nc(N)nc3[nH]nnc23)c1C(F)(F)F [Example 164, 7-(((1-ethyl-5-(trifluoromethyl)-1H-pyrazol-4-yl)methyl)thio)-3H-[1,2,3]triazolo[4,5-d] pyrimidin-5-amine]	–	–	220	770
Nc1cc(SCc2cn(-c3ccccc3)nc2C(F)(F)F)c2nn[nH]c2n1 [Example 113, 7-(((1-phenyl-3-(trifluoromethyl)-1H-pyrazol-4-yl)methyl)thio)-3H-[1,2,3]triazolo[4,5-b] pyridin-5-amine]	–	–	20	10
Cc1ncn(C)c1CSc1cc(N)nc2[nH]nnc12 [Example 77, 7-(((1,4-dimethyl-1H-imidazol-5-yl)methyl)thio)-3H-[1,2,3]triazolo[4,5-b] pyridin-5-amine]	–	–	140	610
CCOC(=O)c1cc(CSc2cc(N)nc3[nH]nnc23)n(C)n1 [Example 70, ethyl 5-(((5-amino-3H-[1,2,3]triazolo[4,5-b]pyridin-7-yl)thio)methyl)-1-methyl-1H-pyrazole-3-carboxylate]	–	–	50	760
